Experimental data as given in patent publication US20060089325A1, “Antisense modulation of PTP1B expression” (priority 2004, published 2006).
Read-outs that look alike come from different tables or passages of the source.

Legend:
[1] = Metformin combination in ZDF rats: hypoglycemia, AST/ALT, lipids, plasma lactate; format: in vivo, rat; conditions: after 4 weeks of treatment
Description: 500 mg/kg is the maximally effective dose that can be tolerated by these rats.
There was no significant change in AST/ALT, plasma triglyceride or plasma cholesterol levels in any animal group. Because of the risk of lactic acidosis associated with metformin treatment, plasma lactate levels were measured.

[2] = test system: Zucker diabetic fatty (ZDF) rats; assay: ZDF rats, comparison to rosiglitazone and metformin: blood glucose, HbA1c, meal tolerance, body weight; format: in vivo, rat; conditions: 31 day washout after 5 weeks of treatment
[3] = test system: Zucker Diabetic Fatty Rats; assay: Combination of ISIS 113715 and metformin in ZDF rats: plasma glucose (Table 18); format: in vivo, rat
Description: 500 mg/kg is the maximally effective dose that can be tolerated by these rats. Plasma glucose was measured at week 0 (before treatment) and after weeks 1, 2 and 4 of treatment.

[4] = test system: Zucker diabetic fatty (ZDF) rats; assay: ZDF rats, comparison to rosiglitazone and metformin: blood glucose, HbA1c, meal tolerance, body weight; format: in vivo, rat; conditions: for HbA1c: end of study (5 weeks), saline ZDF 9.2%, lean 5.5
Description: A saline treated group of lean rats was also included in the study. Treatment with all drugs was initiated before the rats became frankly diabetic, which occurs at about 8 weeks of age. Plasma glucose levels were measured 3 and 5 weeks after treatment initiation. Body weight was measured once every week; in addition, HbA1c levels were measured at the end of the study by HPLC. A meal tolerance test was also performed after 4 weeks of treatment.
At the end of 5 weeks, some rats were sacrificed and the liver and epididymal fat pads were removed. The rest of the animals (n=4/group) were examined for changes in plasma glucose levels after cessation of treatment. Glucose measurements during the recovery phase were made 10 days and 5 weeks after stopping treatment. Tissue extracts were subjected to Western blot analysis to measure changes in PTP1B protein levels.

[5] = test system: Zucker diabetic fatty (ZDF) rats; assay: Fed plasma glucose in Zucker diabetic fatty (ZDF) rats; format: in vivo, rat; conditions: 25 mg/kg ip two times per week
Text: The leptin receptor deficient Zucker diabetic fatty (ZDF) rat is another useful model for the investigation of type 2 diabetes. Diabetes develops spontaneously in these male rats at ages 8-10 weeks, and is associated with hyperphagia, polyuria, polydipsia, and impaired weight gain, symptoms which parallel the clinical symptoms of diabetes (Phillips M S, et al., 1996, Nat Genet 13, 18-19).
(§1) ZDF/GmiCrl-fa/fa (ZDF) male rats were purchased from Charles River Laboratories (Wilmington, Mass., USA). Six week old ZDF male rats were injected intraperitoneally with oligonucleotides at a dose of 25 mg/kg two times per week for four weeks. […] Saline-injected animals also serve as controls.

[6] = test system: PTP1B protein; assay: PTP1B protein levels in ZDF rats (Western blot); format: in vivo, rat; conditions: 25 mg/kg ip twice weekly four weeks
Description: as §1
PTP1B protein levels were measured by Western blot analysis.

[7] = test system: TC-PTPase; assay: TC-PTPase protein in HEPG2 cells (Western blot), specificity; format: cell-based, human; conditions: 150 nM, vs no oligo treatment
Description: (§2) There is a high degree of homology between PTP1B and T-cell phosphatase (TC-PTPase, PTPN2), particularly in the catalytic domain. This may present problems in design of small molecule drugs specific for PTP1B. […] HEPG2 human hepatocellular liver carcinoma cells (ATCC, Manassas Va.) are routinely maintained in minimum essential medium (Eagle) with 2 mM L-glutamine and Earle's BSS adjusted to contain 1.5 g/L sodium bicarbonate, 0.1 mM non-essential amino acids, and 1.0 mM sodium pyruvate, […]; fetal bovine serum.
(§3) Levels of PTP1B and TC-PTPase protein were measured by Western blot using mouse monoclonal antibodies to PTP1B (AB-1) and TC-PTPase (AB-1) (CalBiochem/Oncogene sciences, EMD Biosciences, Inc., San Diego Calif.), which specifically identified human target proteins and were used at 0.25 ug/ml. Results were expressed as percent of control (no oligo treatment).

[8] = test system: Zucker diabetic fatty (ZDF) rats; assay: Intraperitoneal glucose tolerance test (IPGTT) in ZDF rats; format: in vivo, rat; conditions: for Blood glucose after IPGTT (± SEM) / Insulin excursion after IPGTT (± SEM): 25 mg/kg ip twice weekly
Description: as §1
An intraperitoneal glucose tolerance test (IPGTT) was also performed. Rats received intraperitoneal injections of glucose, and the blood glucose and insulin levels are measured before the glucose challenge and at intervals over 2 hours. The blood glucose levels (in mg/dL) are shown below in Table 1:
The blood glucose levels shown in Table 1 were graphed over time and the area under the curve (AUC) is calculated. A smaller AUC for glucose (smaller blood glucose excursion after glucose challenge) indicates better glucose tolerance. Glucose excursion (AUC) for saline-treated rats was approximately 72,000; for negative control ISIS 141923-treated rats, approximately 80,000, for ISIS 113715-treated rats, approximately 60,000 and for ISIS 106425-treated rats, approximately 63,000.

[9] = rat, in vivo
[10] = test system: PTP1B; assay: PTP1B protein in HEPG2 cells (Western blot); format: cell-based, human; conditions: 150 nM, vs no oligo treatment
Description: as §2, §3

[11] = AST/ALT and plasma cholesterol in aged ZDF rats; conditions: weeks 1, 2, 3, 4 and 5
[12] = 10 day washout after 5 weeks of treatment
[13] = Week 3 of dosing, ISIS 113715 50 mg/kg/week ip, rosiglitazone 10 mg/kg/day, metformin 800 mg/kg/day orally

CN(C)C(=N)N=C(N)N [Metformin]
Plasma lactate levels [1]: dose-dependent increase in lactate | Blood glucose (approx.) [2]: ~330 mg/dL | Effect on blood glucose over the study (in words) ([3]; ISIS 113715 12.5 mg/kg ip twice a week, metformin 100, 300 or 500 mg/kg per day, four weeks): lost over time | Plasma glucose mg/dL ± SEM ([3]; metformin alone 100 mg/kg per day oral gavage, Week 0 (before treatment)): 256 ± 29 mg/dL | Plasma glucose mg/dL ± SEM ([3]; metformin alone 100 mg/kg per day oral gavage, Week 1): 428 ± 20 mg/dL | Plasma glucose mg/dL ± SEM ([3]; metformin alone 100 mg/kg per day oral gavage, Week 2): 504 ± 20 mg/dL | Plasma glucose mg/dL ± SEM ([3]; metformin alone 100 mg/kg per day oral gavage, Week 3): 494 ± 18 mg/dL | Plasma glucose mg/dL ± SEM ([3]; metformin alone 100 mg/kg per day oral gavage, Week 4): 393 ± 71 mg/dL | Plasma glucose mg/dL ± SEM ([3]; metformin alone 300 mg/kg per day oral gavage, Week 0 (before treatment)): 251 ± 27 mg/dL | Plasma glucose mg/dL ± SEM ([3]; metformin alone 300 mg/kg per day oral gavage, Week 1): 323 ± 33 mg/dL | Plasma glucose mg/dL ± SEM ([3]; metformin alone 300 mg/kg per day oral gavage, Week 2): 415 ± 29 mg/dL | Plasma glucose mg/dL ± SEM ([3]; metformin alone 300 mg/kg per day oral gavage, Week 3): 449 ± 11 mg/dL | Plasma glucose mg/dL ± SEM ([3]; metformin alone 300 mg/kg per day oral gavage, Week 4): 448 ± 42 mg/dL | Plasma glucose mg/dL ± SEM ([3]; metformin alone 500 mg/kg per day oral gavage, Week 0 (before treatment)): 252 ± 28 mg/dL | Plasma glucose mg/dL ± SEM ([3]; metformin alone 500 mg/kg per day oral gavage, Week 1): 244 ± 56 mg/dL | Plasma glucose mg/dL ± SEM ([3]; metformin alone 500 mg/kg per day oral gavage, Week 2): 344 ± 59 mg/dL | Plasma glucose mg/dL ± SEM ([3]; metformin alone 500 mg/kg per day oral gavage, Week 3): 374 ± 53 mg/dL | Plasma glucose mg/dL ± SEM ([3]; metformin alone 500 mg/kg per day oral gavage, Week 4): 443 ± 35 mg/dL | Body weight after treatment ([4]; 5 weeks): remained unchanged | Blood glucose (approx.) [4, 12]: ~305 mg/dL | Blood glucose (approx.) ([4]; Pre-treatment): ~135 mg/dL | Blood glucose (approx.) [4, 13]: ~180 mg/dL | HbA1c [4]: 6.1%

ISIS 141923: CCTTCCCTGAAGGTTCCTCC (SEQ ID NO: 20), six-mismatch control of ISIS 113715, negative oligonucleotide control (chemistry not given here)
Fed plasma glucose levels ([5]; week 0): approximately 306±59 mg/dL | Fed plasma glucose levels ([5]; week 1): ~391 ± 35 mg/dL | Fed plasma glucose levels ([5]; week 2): ~402 ± 37 mg/dL | Fed plasma glucose levels ([5]; week 3): ~411 ± 27 mg/dL | Fed plasma glucose levels ([5]; week 4): ~392 ± 11 mg/dL | PTP1B protein levels, decrease vs saline-treated animals [6]: 10% | Reduction of TC-PTPase levels [7]: reduced neither PTP1B nor TC-PTPase levels | Blood glucose after IPGTT (± SEM) ([8]; 0 min): 330 ± 39 mg/dL | Insulin excursion after IPGTT (± SEM) ([8]; 0 min): 2.2 ± .30 ng/mL | Blood glucose after IPGTT (± SEM) ([8]; 5 min): 543 ± 43 mg/dL | Insulin excursion after IPGTT (± SEM) ([8]; 5 min): 2.3 ± .84 ng/mL | Blood glucose after IPGTT (± SEM) ([8]; 15 min): 703 ± 60 mg/dL | Insulin excursion after IPGTT (± SEM) ([8]; 15 min): 4.0 ± .22 ng/mL | Blood glucose after IPGTT (± SEM) ([8]; 30 min): 791 ± 52 mg/dL | Insulin excursion after IPGTT (± SEM) ([8]; 30 min): 4.2 ± .37 ng/mL | Blood glucose after IPGTT (± SEM) ([8]; 60 min): 705 ± 51 mg/dL | Insulin excursion after IPGTT (± SEM) ([8]; 60 min): 2.4 ± .66 ng/mL | Blood glucose after IPGTT (± SEM) ([8]; 120 min): 594 ± 28 mg/dL | Insulin excursion after IPGTT (± SEM) ([8]; 120 min): 1.7 ± .60 ng/mL | Insulin AUC after IPGTT ([8]; saline approximately 300): ~320 | Glucose excursion (AUC) after IPGTT ([8]; saline approximately 72,000): approximately 80,000 | AST/ALT [9]: no significant effects | Plasma cholesterol levels [9]: no significant effects | Reduction of PTP1B protein levels [10]: reduced neither PTP1B nor TC-PTPase levels

CN(CCOc1ccc(CC2SC(=O)NC2=O)cc1)c1ccccn1 (centres unmarked) [Rosiglitazone]
Blood glucose (approx.) [2]: ~270 mg/dL | Plasma cholesterol levels [11]: no significant effects | Blood glucose (approx.) [4, 12]: ~260 mg/dL | Blood glucose (approx.) ([4]; Pre-treatment): ~140 mg/dL | Blood glucose (approx.) [4, 13]: ~110 mg/dL | HbA1c [4]: 5.4%
